pIC50: −log10 of the molar value. Calls of active or inactive are those of the source. No cut-off for these calls is given here.
Legend:
Huh-7 [1] = test: Induction of apoptosis in human Huh-7 cells assessed as increase in cytochrome-C expression at 0.9 to 8.1 uM incubated for 48 hrs by Western blotting analysis; type: functional, cell-based; details: dose 0.9-8.1 µM
SK-HEP1 [2] = test: Induction of apoptosis in human SK-HEP1 cells assessed as inhibition of caspase-3 expression incubated for 48 hrs by Western blotting analysis; type: functional, cell-based; details: dose 1.5-13.5 µM
Huh-7 [3] = test: Induction of apoptosis in human Huh-7 cells assessed as nuclear membrane breakdown at 0.9 to 8.1 uM incubated for 24 hrs by giemsa staining based micrscopic analysis; type: functional, cell-based; details: dose 0.9-8.1 µM
Huh-7 [4] = test: Induction of apoptosis in human Huh-7 cells assessed as genomic DNA fragmentation at 0.9 to 8.1 uM incubated for 24 hrs by giemsa staining based micrscopic analysis; type: functional, cell-based; details: dose 0.9-8.1 µM
SK-HEP1 [5] = test: Induction of apoptosis in human SK-HEP1 cells assessed as cell shrinkage at 1.5 to 13.5 uM incubated for 24 hrs by giemsa staining based micrscopic analysis; type: functional; details: dose 1.5-13.5 µM
SK-HEP1 [6] = test: Induction of ROS production in human SK-HEP1 cells assessed as increase in intracellular ROS level at 1.5 to 13.5 uM incubated for 24 hrs by DCFH-DA staining based fluorescence assay; type: functional, cell-based; details: dose 1.5-13.5 µM
SK-HEP1 [7] = test: Induction of apoptosis in human SK-HEP1 cells assessed as increase in cleaved caspase-9 expression at 1.5 to 13.5 uM incubated for 48 hrs by Western blotting analysis; type: functional, cell-based; details: dose 1.5-13.5 µM
Huh-7 [8] = test: Inhibition of PI3K signalling pathway in human Huh-7 cells assessed as inhibition of PI3K phosphorylation at 0.9 to 8.1 uM measured after 48 hrs by Western blotting analysis; type: cell-based; details: dose 0.9-8.1 µM
SK-HEP1 [9] = test: Antiinvasive activity in human SK-HEP1 cells assessed as reduction in number of invasive cells at 1.25 to 5 uM incubated for 24 hrs by transwell invasion assay; type: functional, cell-based; details: dose 1.25-5 µM
Huh-7 [10] = test: Induction of apoptosis in human Huh-7 cells assessed as cell shrinkage at 0.9 to 8.1 uM incubated for 24 hrs by giemsa staining based micrscopic analysis; type: functional; details: dose 0.9-8.1 µM
Huh-7 [11] = test: Induction of apoptosis in human Huh-7 cells assessed as increase in Bax expression at 0.9 to 8.1 uM incubated for 48 hrs by Western blotting analysis; type: functional, cell-based; details: dose 0.9-8.1 µM
Huh-7 [12] = test: Antiproliferative activity against human Huh-7 cells assessed as inhibition of cell growth measured after 72 hrs by MTT assay; type: functional, cell-based
SK-HEP1 [13] = test: Antiproliferative activity against human SK-HEP1 cells assessed as inhibition of cell growth upto 2 uM by MTT assay; type: functional, cell-based; details: time 72.0 hrs, TDE = time-dependent effect
Huh-7 [14] = test: Induction of apoptosis in human Huh-7 cells assessed as increase in cleaved caspase-3 expression at 0.9 to 8.1 uM incubated for 48 hrs by Western blotting analysis; type: functional, cell-based; details: dose 0.9-8.1 µM
[15] = Acute toxicity in BALB/c mouse assessed as change in body weight at 650 mg/kg, ip measured after 14 days; type: organism-based; details: in vivo, 336 h, time 14 day
[16] = molecular target: Serine/threonine-protein kinase AKT (Homo sapiens) (UniProt P31751+Q9Y243+P31749); test: Inhibition of Akt signalling pathway in human Huh-7 cells assessed as inhibition of Akt phosphorylation at 0.9 to 8.1 uM measured after 48 hrs by Western blotting analysis; type: cell-based; details: dose 0.9-8.1 µM
Serine/threonine-protein kinase AKT (Homo sapiens), sequence (P31749 whole entry, looked up): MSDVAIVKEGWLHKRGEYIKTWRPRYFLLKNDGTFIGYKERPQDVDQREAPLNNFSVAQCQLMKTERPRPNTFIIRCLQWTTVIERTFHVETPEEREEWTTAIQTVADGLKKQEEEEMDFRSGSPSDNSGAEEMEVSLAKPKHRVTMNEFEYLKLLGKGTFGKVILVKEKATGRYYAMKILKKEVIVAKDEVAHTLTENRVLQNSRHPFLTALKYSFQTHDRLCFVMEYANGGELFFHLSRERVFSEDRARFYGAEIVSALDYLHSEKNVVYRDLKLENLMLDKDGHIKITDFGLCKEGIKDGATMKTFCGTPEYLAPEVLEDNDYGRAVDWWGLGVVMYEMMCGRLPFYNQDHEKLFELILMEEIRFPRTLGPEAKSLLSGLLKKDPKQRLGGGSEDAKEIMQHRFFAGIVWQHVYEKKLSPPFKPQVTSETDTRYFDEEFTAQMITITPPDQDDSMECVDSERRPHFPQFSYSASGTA
Serine/threonine-protein kinase AKT (Homo sapiens), sequence (P31751 whole entry, looked up): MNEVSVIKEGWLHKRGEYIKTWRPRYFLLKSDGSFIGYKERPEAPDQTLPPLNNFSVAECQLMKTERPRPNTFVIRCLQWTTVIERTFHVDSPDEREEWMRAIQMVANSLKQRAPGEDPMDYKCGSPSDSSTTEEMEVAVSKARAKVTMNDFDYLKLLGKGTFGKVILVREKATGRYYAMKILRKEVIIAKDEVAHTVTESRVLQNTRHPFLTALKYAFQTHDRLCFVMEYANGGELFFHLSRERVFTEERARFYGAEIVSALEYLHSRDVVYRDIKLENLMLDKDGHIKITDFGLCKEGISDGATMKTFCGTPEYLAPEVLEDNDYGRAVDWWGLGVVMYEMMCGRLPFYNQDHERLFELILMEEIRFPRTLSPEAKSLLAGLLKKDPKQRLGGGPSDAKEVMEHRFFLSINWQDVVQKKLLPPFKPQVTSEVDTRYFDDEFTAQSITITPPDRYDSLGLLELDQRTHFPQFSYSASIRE
Serine/threonine-protein kinase AKT (Homo sapiens), sequence (Q9Y243 whole entry, looked up): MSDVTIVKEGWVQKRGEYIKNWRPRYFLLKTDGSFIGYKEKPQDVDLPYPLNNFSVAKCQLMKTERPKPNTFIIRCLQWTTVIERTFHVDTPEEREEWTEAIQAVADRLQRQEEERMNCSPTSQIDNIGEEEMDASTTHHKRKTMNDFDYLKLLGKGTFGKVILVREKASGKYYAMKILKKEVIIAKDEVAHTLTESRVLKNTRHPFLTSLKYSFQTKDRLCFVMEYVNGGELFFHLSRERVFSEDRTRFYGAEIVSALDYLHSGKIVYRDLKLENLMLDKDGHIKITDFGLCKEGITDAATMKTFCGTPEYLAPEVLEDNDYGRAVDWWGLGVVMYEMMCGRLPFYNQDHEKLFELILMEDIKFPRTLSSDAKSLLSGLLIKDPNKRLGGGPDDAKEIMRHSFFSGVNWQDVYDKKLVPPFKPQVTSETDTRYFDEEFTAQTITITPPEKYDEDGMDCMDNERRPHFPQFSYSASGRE

Huh-7 [17] = test: Inhibition of cell migration in human Huh-7 cells incubated for 24 hrs by scratch wound healing assay; type: functional, cell-based; details: dose 0.55-2.2 µM
SK-HEP1 [18] = test: Antiproliferative activity against human SK-HEP1 cells assessed as reduction in ratio of EdU-positive cells measured after 24 hrs by EdU incorporation assay; type: functional, cell-based; details: dose 1.25-5 µM
Huh-7 [19] = test: Antimigratory activity against human Huh-7 cells assessed as up-regulation of E-cadherin expression at 0.55 to 2.2 uM incubated 24 hrs by Western blotting analysis; type: functional, cell-based; details: dose 0.55-2.2 µM
SK-HEP1 [20] = test: Induction of cell cycle arrest in human SK-HEP1 cells assessed as decrease in cyclin B1 expression incubated for 48 hrs by Western blotting analysis; type: functional, cell-based; details: dose 1.5-13.5 µM
SK-HEP1 [21] = test: Induction of cell cycle arrest in human SK-HEP1 cells assessed as decrease in CDK1 expression incubated for 48 hrs by Western blotting analysis; type: functional, cell-based; details: dose 1.5-13.5 µM
Huh-7 [22] = test: Induction of cell cycle arrest in human Huh-7 cells assessed as decrease in cyclin B1 expression incubated for 48 hrs by Western blotting analysis; type: functional, cell-based; details: dose 0.9-8.1 µM
SK-HEP1 [23] = test: Induction of apoptosis in human SK-HEP1 cells assessed as inhibition of caspase-9 expression incubated for 48 hrs by Western blotting analysis; type: functional, cell-based; details: dose 1.5-13.5 µM
Huh-7 [24] = test: Induction of apoptosis in human Huh-7 cells assessed as formation of apoptotic bodies at 0.9 to 8.1 uM incubated for 24 hrs by giemsa staining based micrscopic analysis; type: functional, cell-based; details: dose 0.9-8.1 µM
[25] = Acute toxicity in BALB/c mouse assessed as change in body weight at 650 mg/kg, ip measured at day 2; type: organism-based; details: in vivo, 48 h, time 2 day
Huh-7 [26] = test: Induction of cell cycle arrest in human Huh-7 cells assessed as decrease in cyclin A expression incubated for 48 hrs by Western blotting analysis; type: functional, cell-based; details: dose 0.9-8.1 µM
HepG2 = test: Antiproliferative activity against human HepG2 cells assessed as inhibition of cell growth measured after 72 hrs by MTT assay; type: functional, cell-based; details: HepG2, 72 h
Huh-7 [27] = test: Induction of mitochondrial membrane potential depolarization in human Huh-7 cells incubated for 24 hrs by TMRE staining based flow cytometry analysis; type: functional, cell-based; details: dose 0.9-8.1 µM
Huh-7 [28] = test: Antiinvasive activity in human Huh-7 cells assessed as reduction in number of invasive cells at 0.55 to 2.2 uM incubated for 24 hrs by transwell invasion assay; type: functional, cell-based; details: dose 0.55-2.2 µM
SK-HEP1 [29] = test: Antiproliferative activity against human SK-HEP1 cells assessed as inhibition of cell growth measured after 72 hrs by MTT assay; type: functional, cell-based
Huh-7 [30] = test: Induction of apoptosis in human Huh-7 cells assessed as inhibition of caspase-3 expression incubated for 48 hrs by Western blotting analysis; type: functional, cell-based; details: dose 0.9-8.1 µM
Huh-7 [31] = test: Induction of apoptosis in human Huh-7 cells assessed as chromatin condensation at 0.9 to 8.1 uM incubated for 24 hrs by giemsa staining based micrscopic analysis; type: functional, cell-based; details: dose 0.9-8.1 µM
Huh-7 [32] = test: Inhibition of colony formation in human Huh-7 cells assessed as reduction in number of cell colonies at 0.55 to 2.2 uM measured after 10 and 14 days by crystal violet staining based light microscopic analysis; type: functional; details: dose 0.55-2.2 µM, time 14.0 day
Huh-7 [33] = test: Inhibition of cell migration in human Huh-7 cells at 0.55 to 2.2 uM incubated for 24 hrs by crystal violet staining based transwell migration assay; type: functional; details: dose 0.55-2.2 µM
[34] = molecular target: Serine/threonine-protein kinase mTOR (Homo sapiens) (UniProt P42345); test: Inhibition of mTOR signalling pathway in human Huh-7 cells assessed as inhibition of mTOR phosphorylation at 0.9 to 8.1 uM measured after 48 hrs by Western blotting analysis; type: cell-based; details: dose 0.9-8.1 µM
Huh-7 [35] = test: Induction of ROS production in human Huh-7 cells assessed as increase in intracellular ROS level at 0.9 to 8.1 uM incubated for 24 hrs by DCFH-DA staining based fluorescence assay; type: functional, cell-based; details: dose 0.9-8.1 µM
Huh-7 [36] = test: Induction of apoptosis in human Huh-7 cells assessed as inhibition of caspase-9 expression incubated for 48 hrs by Western blotting analysis; type: functional, cell-based; details: dose 0.9-8.1 µM

CC(=O)Oc1ccccc1/C=C/c1nccc2ccccc12
Activity (Huh-7 [1]): Active | Activity (SK-HEP1 [2]): Dose-Dependent Effect | Activity (Huh-7 [3]): Active | Activity (Huh-7 [4]): Active | Activity (SK-HEP1 [5]): Active | Activity (SK-HEP1 [6]): Active | Activity (SK-HEP1 [7]): Active | inhibition (Huh-7 [8]): Active | Activity (SK-HEP1 [9]): Active | Activity (Huh-7 [10]): Active | Activity (Huh-7 [11]): Active | Activity (Huh-7 [12]): Dose-Dependent Effect | pIC50 (Huh-7 [12]; Huh-7, 72 h): 5.60 | Activity (SK-HEP1 [13]): Tde | Activity (Huh-7 [14]): Active | Activity [15]: Non-Toxic | inhibition [16]: Active | inhibition (Huh-7 [17]): Dose-Dependent Effect | Activity (SK-HEP1 [18]): Dose-Dependent Effect | Activity (Huh-7 [19]): Active | Activity (SK-HEP1 [20]): Dose-Dependent Effect | Activity (SK-HEP1 [21]): Dose-Dependent Effect | Activity (Huh-7 [22]): Dose-Dependent Effect | Activity (SK-HEP1 [23]): Dose-Dependent Effect | Activity (Huh-7 [24]): Active | Activity [25]: Toxic | Activity (Huh-7 [26]): Dose-Dependent Effect | pIC50 (HepG2): 5.01 | Activity (Huh-7 [27]): Dose-Dependent Effect | Activity (Huh-7 [28]): Active | Activity (SK-HEP1 [29]): Dose-Dependent Effect | pIC50 (SK-HEP1 [29]; SK-HEP1, 72 h): 5.38 | Activity (Huh-7 [30]): Dose-Dependent Effect | Activity (Huh-7 [31]): Active | inhibition (Huh-7 [32]): Active | inhibition (Huh-7 [33]): Active | Activity [34]: Active | Activity (Huh-7 [35]): Active | Activity (Huh-7 [36]): Dose-Dependent Effect
